According to US7361638B2, “Pharmaceutical combination for the treatment of tissue damage owing to an arterial irrigation defect” (Centro de Ingenieria Genetica y Biotecnologia, priority 2001, dated 2008):
“Also recorded” adds a separate entry of the source. Marks after values point to notes of the source that are not given here. Non-standard residues stand in square brackets, D forms with d. No end group written: not given here.

Key:
[1] = test system: rat model of renal bilateral ischemia/reperfusion; experiment: Renal bilateral ischemia/reperfusion, first phase (1 hour ischemia, 3 hour reperfusion); format: in vivo, Wistar rats; settings: 1 h ischemia, 3 h reperfusion; for Glomerular Filtration Rate / Renal Plasmatic Flow / Urine output during the reperfusion period: EGF 20 μg; for Glomerular Filtration Rate / Renal Plasmatic Flow: GHRP-6 50 μg, combination EGF 5 μg + GHRP-6 10 μg per rat i.p.; for Urine output during the reperfusion period: i.p. 30 min before ischemia, GHRP 50 μg, combination EGF 5 μg + GHRP-6 10 μg per rat, mean and SD; for Renal failure / oliguria, result in words: versus saline-treated ischemic controls
Procedure: The potential nephroprotective effects of each of the peptides alone or in combination was studied in a rat model of renal bilateral ischemia/reperfusion. In a first phase trial, a ischemia period of 1 hour followed by a 3 hour reperfusion period was established. Female Wistar rats (200-220 g) were randomly assigned to the following experimental groups (N=10):
Group II: Ischemic and normal saline solution 0.9%.
Group IV: Ischemic and GHRP −6-50 μg/rat.
All the treatments were intraperitoneally administered 30 minutes before ischemia.
(§1) Renal arteries were clamped with microvascular clamps (Moria, Fine Science Tools, USA) for 60 minutes. After 3 hours of reperfusion the animals were monitored for another 30 minutes to establish renal functioning.
(§2) Glomerular filtration rate (GFR) and the renal plasmatic flow (RPF) were studied using molecular weight markers as inulin and p-amino hypuric. Clearance coefficients were determined as follows:
Uv(m) maximal urine volume per minute. […]
(§3) A catheter was fixed in the urinary bladder and the urethra was clamped. The free end of the catheter was inserted in a graduated tube and the urine volume was collected during 10 minutes.
Renal tissue samples were homogenized in KCI/histidine (pH7.3) buffer and the supernatant was used to measure the activity of the enzymes PLA2, catalase, as the MDA reactive metabolite.
Renal tissue samples were fixed in 10% buffered formalin, paraffin embedded, H&E stained and studied by independent pathologists using the following criteria: number of collapsed glomeruli, cortical hemorrhage, medullar hemorrhage, severe tubular damage, and severe interstitial damage. […] GHRP-6 intervention increased urine formation 4 times as compared to saline treated animals, which argues in favor of renal functional protection.

[2] = test system: rat model of renal bilateral ischemia/reperfusion; experiment: Renal ischemia/reperfusion, second phase (3 hours ischemia, similar reperfusion time); format: in vivo, Wistar rats; settings: 3 h ischemia; for Urine output during the reperfusion period: EGF 20 μg, GHRP 50 μg, combination, mean and SD
Procedure: as §1, §2, §3
Renal tissue samples were fixed in 10% buffered formalin, paraffin embedded, H&E stained and studied by independent pathologists using the following criteria: number of collapsed glomeruli, cortical hemorrhage, medullar hemorrhage, severe tubular damage, and severe interstitial damage.
During a second phase study, a larger ischemia period was introduced which allowed for studying the effect of the peptide in a more practical model with respect to the clinical practice. Kidneys were exposed to a 3 hours ischemia period and a similar reperfusion time.

[3] = test system: Intestinal Ischemia/Reperfusion Model; experiment: Intestinal ischemia/reperfusion model (2 hours ischemia, 3 hours reperfusion); format: in vivo, Sprague Dawley rats; settings: 2 h ischemia, 3 h reperfusion
Procedure: Male Sprague Dawley (220-250 g) rats were randomly assigned to the following treatment groups: I: ischemia/normal saline. […] III: Ischemia/GHRP-6 100 μg/rat. IV: Ischemia/combination -EGF (5 μg)/GHRP-6 (2 μg)/rat. All the treatments were intraperitoneally administered 30 minutes prior to beginning the ischemia period. […] The artery was clamped for a period of 2 hours, thus provoking a severe ischemia time on the jejunum and ileum portions of the small intestine. Reperfusion was allowed for 3 hours. Rats were euthanized and subjected to complete autopsy. The small intestine was resected and the length of hemorrhagic mucosal and/or luminal damage was registered. Luminal content was flushed out with a standard volume of saline to determine the hemoglobin content. Intestinal mucosa was washed with warm normal saline, weighed and fragments used to determine total protein content by Lowry method. Other fragments were used for total DNA content and microscopic analysis. Villi/mucosal damage was microscopically analyzed as described by Chiu. This scale considers Grade 0 as intact mucosa progressing to Grade 5 as full-thickness denudation.

[4] = test system: Experimental Model of Multiple Organ Damage by Extensive Burns; experiment: Multiple organ damage by extensive burns (25% body surface scald), intestinal regeneration; format: in vivo, Balb/c mice; settings: for Final weight (body weight) / % Increase of body weight: 10th day following scalding; for Final weight (body weight): after 20 administrations, table prints EGF 0.01 μg, GHRP 0.01 μg, mean and SD, in g (unit assumed); for Crypts depth / No. of crypts in fission (×200) / Villous height / No. of metaphases per crypt (×200): day 10 post-scalding; for % Increase of body weight: initial to final weight; for No. of metaphases per crypt (×200): vincristine 1 mg/kg six hours prior to death
Procedure: The dorsal region of Balb/c mice (22-25 g) was depilated and subjected to hypodermic scalding involving a 25% of body surface area, by immersion in equilibrated water at 95-97° C. for 5 seconds. All the mice received 1.5 ml of normal saline solution as fluid resuscitation immediately after. This animal model had been previously established and calibrated in our laboratory, and is useful to our goals as extensive internal changes are steadily reproduced. On the next 24 hours the surviving mice were randomly assigned to the following groups: Reference. Sham burned mice receiving saline 0.9% (N=5). Scalded receiving only normal saline 0.9%. […] Scalded and treated with GHRP-6 (N=9; 0.1 μg GHRP-6/animal). Scalded, treated with the peptide combination (N=10). […] Administrations were done twice a day and until day 10 post-scalding. Once the treatments were completed, animals were weighed again and euthanized for necropsy and microscopic examination. Six hours prior to death, every mouse received an injection of vincristine (1 mg/kg) to arrest cells on metaphase. Intestines were resected, flushed and weighed. Fragments were collected for total DNA and protein content. Other fragments were formalin fixed and used for routine processing or intestinal microdissection of villi and crypts. Morphometric procedures on the microscopic slides were derived from the […] image processing system. The following parameters were considered in this study: Animal weight. Intestinal weight, protein and DNA content. Number of cells in metaphase per crypt. Number of branching crypts. Villous height. Crypts depth.

[5] = test system: gastric mucosa of animals exposed to a severe systemic stress; experiment: Acute gastric stress damage model (cold swim and restraint); format: in vivo, OF-1 mice
Procedure: Adult, male OF-1 mice (20-23 g) were randomly assigned to receive GHRP-6 (0.1 μg/animal) or normal saline solution 0.9% (both i.p.). Ten to thirty minutes later animals were forced to swim in cold water for 30 minutes and later restrained for another 20 minute period at 4° C. Animals were thereafter anesthetized and euthanized for gastric mucosa inspection. Samples were fixed in 10% buffered formalin and H&E, and PAS stained for microscopic examination. Erosion, hemorrhage, and ulceration were the gross pathology criteria considered in the experiment (Playford RJ. Peptides and gastrointestinal mucosa integrity. Gut 1995, 37: 595-597). Microscopic ulceration was only considered when deeper than the first third of the glandular mucosa. Luminal bleeding was studied by measuring hemoglobin by the cyano metahemoglobin method (Reactivos Spinreact, Barcelona). Data were expressed in g/dL. All determinations were done in a blind fashion using a sham group.

[6] = test system: Intestinal Ischemia/Reperfusion Model; experiment: Survival after intestinal ischemia/reperfusion, monitored for 96 hours; format: in vivo, Sprague Dawley rats; settings: 96 hours of reperfusion; N = 10; EGF 500 μg, GHRP-6 100 μg, EGF 5 μg + GHRP-6 2 μg
Procedure: In order to fully elucidate the protective effect of the combination treatment in this model of intestinal ischemia/reperfusion, survival was monitored until 96 hours of reperfusion.
A second and independent experiment was conducted in order to learn if the combination stimulated animals' survival. Experimental methodology is as described above. All the rats received an intraperitoneal injection of lactated Ringer following wound closure. Animals were monitored for 96 hours once reperfusion was initiated. […] (Table 9).

[7] = EGF 500 μg, GHRP-6 100 μg, combination EGF 5 μg + GHRP-6 2 μg per rat i.p.
[8] = GHRP-6 0.1 μg/animal i.p. 10-30 min before stress, 20 mice per group

Row | Substance | Glomerular Filtration Rate [1] [ml/min/100 g] | Renal Plasmatic Flow [1] [ml/min/100 g] | Urine output during the reperfusion period [1] | Renal failure / oliguria, result in words [1] | Nephroprotection / urine volume, result in words [2] | Percent of animals/group showing Cortical Hemorrhage [2] | Percent of animals/group showing Damaged Glomeruli [2] | Percent of animals/group showing Interstitial Damage [2] | Percent of animals/group showing Medullar Hemorrhage [2] [%] | Urine output during the reperfusion period [2] | Intestinal mucosal protection, result in words [3] | Final weight (body weight) [4] | Crypts depth [4] [μm] | No. of crypts in fission (×200) [4] | Villous height [4] [μm] | % Increase of body weight [4] [%] | No. of metaphases per crypt (×200) [4] | also measured
1 | EGF: Epidermal Growth Factor of natural, synthetic or recombinant origins | 0.3 ± 0.15 | 1.2 ± 0.61 | 114 ± 51 | attenuated the oliguria; also recorded: partially attenuate renal failure | negligible and contains hemoglobin | 70% | 80% | 80% | 80 | 83 ± 21 | minimal protection | 28.2 ± 3.3 | 48 ± 9 | 25 ± 8 | 118.7 ± 19 | 27 | 101 ± 35 | Glomerular Filtration Rate [2]: 0.24 ± 0.15 ml/min/100 g; Renal Plasmatic Flow [2]: 0.6 ± 0.05 ml/min/100 g; DMA content [3, 7]: 0.4 ± 0.11 µg/cm; Luminal hemoglobin [3, 7]: 3.5 ± 1.02 g/dL; Mucosal Weight [3, 7]: 10.7 ± 4.5 g; Proteins Content [3, 7]: 1.08 ± 0.6 mg/cm; % of intestinal damage ([3]; i.p. 30 min before ischemia, EGF 500 μg, GHRP-6 100 μg, combination EGF 5 μg + GHRP-6 2 μg per rat, mean and SD): 78.7 ± 2.8%
2 | H[dW]AW[dF]K-NH2 [GHRP-6] | 0.46 ± 0.23 | 1.88 ± 0.8 | 208 ± 47 | partially attenuate renal failure | Partial nephroprotection | 40♦ percent | 60♦ percent | 30♦ percent | 80 | 168 ± 33 | partial protection | 28.4 ± 1.8 | 40.8 ± 13 | 19 ± 6 | 99.2 ± 10 | 23 | 59 ± 12 | Epithelial Erosion, number of animals [5, 8]: 6; Epithelial Erosion, percent of animals [5, 8]: 30%; Luminal Hemorrhage, number of animals [5, 8]: 0 (0%)*; Luminal Hemorrhage, percent of animals [5, 8]: 0 (0%)*; Mucosal Hemorrhage, number of animals [5, 8]: 0 (0%)*; Mucosal Hemorrhage, percent of animals [5, 8]: 0 (0%)*; Total of ulcers ([5]; GHRP-6 0.1 μg/animal i.p., 20 mice per group): 3*; Luminal hemoglobin ([5]; GHRP-6 0.1 μg/animal i.p., cyano metahemoglobin method): 0* g/dL; Increase of urine formation compared to saline treated animals ([1]; GHRP-6 50 μg/rat i.p.): 4 times; Percent of animals/group showing Tubular Damage [2]: 50♦ percent; Survival (%) [6]: 40%
